Values of other authors as cited in patent US20240173413A1, “Ultrasound Responsive Nanobubble Compositions and Methods of Production and Use Thereof” (University of Central Florida Research Foundation, lnc., priority 2021, published 2024).
Like-named read-outs stand apart in the source and are kept apart here.

System: patients with postmenopausal osteoporosis
Settings: Phase III, development terminated

SMILES: CC(C)(F)C[C@H](N[C@@H](c1ccc(-c2ccc(S(C)(=O)=O)cc2)cc1)C(F)(F)F)C(=O)NC1(C#N)CC1 [Odanacatib]
- adverse effects: increased risk of stroke
- adverse effects (listed as ODN): cardio-cerebrovascular adverse effects
